From patent US11279676B2 (CHIA TAI TIANQING PHARMACEUTICAL GROUP CO., LTD., priority 2018, dated 2022)
Read-outs that look alike come from different tables or passages of the source. Each block holds one molecule with its values, some of them ahead of it.

Tests used:
[1] = Pharmacokinetic test in rats (relative bioavailability after gavage); assay type: in vivo; settings: intragastric 20 mg/kg in gavage capsules; for Relative F: relative to crystalline form A (100)
Experimental: The relative bioavailability of the compound of formula I in vivo was evaluated, after SD rats were gavaged with crystalline form A, crystalline form B, crystalline form D and crystalline form E of the compound of formula I.
Test samples: crystalline form A, crystalline form B, crystalline form D and crystalline form E of the compound of formula I filled in No. 9 gavage capsules separately
SD rats, weighing 180-200 g, after adaptation of 3-5 days, were randomly divided into 4 groups, with 4 rats in each group, and were respectively administered of crystalline form A, crystalline form B, crystalline form D and crystalline form E of the compound of formula I by intragastric administration at a dose of 20 mg/kg. The rats were fasted for 12 hours before administration and given food 4 hours after administration. Drinking water was free before and after the experiment and during the experiment.
After administration, the collection time points were 0.167 h (10 min), 0.5 h, 1 h, 2 h, 4 h, 6 h, 8 h, 10 h, and 24 h. About 0.3 mL of blood was collected from the orbital venous plexus and placed in a centrifuge tube containing EDTA-K2. Stored at 4° C. Centrifuged at a condition of 4° C., 4000 rpm, 10 min within 1 h, and stored at −20° C. to be tested.
Pipetted 50 μL of plasma sample to be tested, added 300 μL of acetonitrile solution containing internal standard, shook and mixed for 5 min, centrifuged at 13000 rpm for 10 min, took 30 μL of supernatant, added 150 μL of 50% acetonitrile aqueous solution, and pipetted 1 μL for LC/MS/MS analysis and determination.
Making use of liquid chromatography-tandem mass spectrometry (LC-MS/MS), with diazepam as an internal standard (IS), protein precipitation method was used to extract the analyte and internal standard from the plasma, and reverse phase chromatography column was adopted to separate compounds and internal standard. The analyte was quantified by electrospray ionization (ESI) mode of a tandem quadrupole mass spectrometer.

[2] = Hygroscopicity test (Chinese Pharmacopoeia 2015, General Chapter 9103); assay type: physicochemical; settings: Guidelines for Drug Moisture Test, Chinese Pharmacopoeia 2015 Chapter 9103
Experimental: Took the crystalline form A, crystalline form B, crystalline form D and crystalline form E of the compound of formula I to conduct test according to the “Guidelines for Drug Moisture Test” of the Chinese Pharmacopoeia 2015 Edition Fourth General Chapter 9103, and respectively, the weight gain of samples due to hygroscopicity was calculated.

[3] = SD rats, plasma, mean of 4 rats, listed as Crystalline Form E of the Compound of Formula I
[4] = SD, rat, plasma, po, 20 mg/kg, mean of 4 rats
[5] = SD rats, plasma, mean of 4 rats, listed as Crystalline Form B of the Compound of Formula I
[6] = SD rats, plasma, mean of 4 rats, listed as Crystalline Form D of the Compound of Formula I

MRT(0-t) [1, 3]: 7.30 h
Tmax [1, 3]: 4.50 h
t1/2 [1, 3]: 4.61 h
Relative F ([1]; SD rats, listed as Crystalline Form E of the Compound of Formula I): 84%
Compound: COc1cc2c(Oc3ccc(NC(=O)C4(C(=O)Nc5ccc(F)cc5)CC4)cc3F)ccnc2cc1OCC1(NC2CCCC2)CC1 [Example 5]

Weight Gain due to Hygroscopicity [2]: Less than 0.2%
Relative F ([1]; SD rats, listed as Crystalline Form A of the Compound of Formula I): 100%
AUC(0-inf) [1, 4]: 4960 ng·h/mL
AUC(0-t) [1, 4]: 4700 ng·h/mL
half-life [1, 4]: 4.93 h
MRT last ([1]; SD, rat, plasma, po, 20 mg/kg, plasma, mean of 4 rats, read-out: MRT(0-t)): 8.51 h
Tmax ([1]; SD, rat, plasma, po, 20 mg/kg, plasma, mean of 4 rats, read-out: Tmax): 6 h
Compound: COc1cc2c(Oc3ccc(NC(=O)C4(C(=O)Nc5ccc(F)cc5)CC4)cc3F)ccnc2cc1OCC1(NC2CCCC2)CC1 [Example 1]

MRT(0-t) [1, 5]: 6.72 h
Tmax [1, 5]: 4.00 h
t1/2 [1, 5]: 5.30 h
Relative F ([1]; SD rats, listed as Crystalline Form B of the Compound of Formula I): 134%
Compound: COc1cc2c(Oc3ccc(NC(=O)C4(C(=O)Nc5ccc(F)cc5)CC4)cc3F)ccnc2cc1OCC1(NC2CCCC2)CC1 [Example 2]

MRT(0-t) [1, 6]: 8.73 h
Tmax [1, 6]: 6.00 h
t1/2 [1, 6]: 5.20 h
Relative F ([1]; SD rats, listed as Crystalline Form D of the Compound of Formula I): 72%
Compound: COc1cc2c(Oc3ccc(NC(=O)C4(C(=O)Nc5ccc(F)cc5)CC4)cc3F)ccnc2cc1OCC1(NC2CCCC2)CC1 [Example 4]
